The source of these data is publication PMC3961306, “Comparison of the Cancer Gene Targeting and Biochemical Selectivities of All Targeted Kinase Inhibitors Approved for Clinical Use” (PLoS ONE, 2014).

Assay in all cases: Kinase profiling in a biochemical assay panel (mobility shift assays and ELISA), %-inhibition at 1 μM; selectivity entropy
In general terms: ELISA stands for enzyme-linked immunosorbent assay.

Experiment [1] concerns the target panel of more than 300 wild-type and mutant kinases (313 kinase panel) (Homo sapiens, UniProt P10721, T670I).
Experiment [2] deals with T1, panel of more than 300 wild-type and mutant kinases (313 kinase panel) (Homo sapiens, UniProt Q96PY6).
T1 sequence (Q96PY6 1-1258): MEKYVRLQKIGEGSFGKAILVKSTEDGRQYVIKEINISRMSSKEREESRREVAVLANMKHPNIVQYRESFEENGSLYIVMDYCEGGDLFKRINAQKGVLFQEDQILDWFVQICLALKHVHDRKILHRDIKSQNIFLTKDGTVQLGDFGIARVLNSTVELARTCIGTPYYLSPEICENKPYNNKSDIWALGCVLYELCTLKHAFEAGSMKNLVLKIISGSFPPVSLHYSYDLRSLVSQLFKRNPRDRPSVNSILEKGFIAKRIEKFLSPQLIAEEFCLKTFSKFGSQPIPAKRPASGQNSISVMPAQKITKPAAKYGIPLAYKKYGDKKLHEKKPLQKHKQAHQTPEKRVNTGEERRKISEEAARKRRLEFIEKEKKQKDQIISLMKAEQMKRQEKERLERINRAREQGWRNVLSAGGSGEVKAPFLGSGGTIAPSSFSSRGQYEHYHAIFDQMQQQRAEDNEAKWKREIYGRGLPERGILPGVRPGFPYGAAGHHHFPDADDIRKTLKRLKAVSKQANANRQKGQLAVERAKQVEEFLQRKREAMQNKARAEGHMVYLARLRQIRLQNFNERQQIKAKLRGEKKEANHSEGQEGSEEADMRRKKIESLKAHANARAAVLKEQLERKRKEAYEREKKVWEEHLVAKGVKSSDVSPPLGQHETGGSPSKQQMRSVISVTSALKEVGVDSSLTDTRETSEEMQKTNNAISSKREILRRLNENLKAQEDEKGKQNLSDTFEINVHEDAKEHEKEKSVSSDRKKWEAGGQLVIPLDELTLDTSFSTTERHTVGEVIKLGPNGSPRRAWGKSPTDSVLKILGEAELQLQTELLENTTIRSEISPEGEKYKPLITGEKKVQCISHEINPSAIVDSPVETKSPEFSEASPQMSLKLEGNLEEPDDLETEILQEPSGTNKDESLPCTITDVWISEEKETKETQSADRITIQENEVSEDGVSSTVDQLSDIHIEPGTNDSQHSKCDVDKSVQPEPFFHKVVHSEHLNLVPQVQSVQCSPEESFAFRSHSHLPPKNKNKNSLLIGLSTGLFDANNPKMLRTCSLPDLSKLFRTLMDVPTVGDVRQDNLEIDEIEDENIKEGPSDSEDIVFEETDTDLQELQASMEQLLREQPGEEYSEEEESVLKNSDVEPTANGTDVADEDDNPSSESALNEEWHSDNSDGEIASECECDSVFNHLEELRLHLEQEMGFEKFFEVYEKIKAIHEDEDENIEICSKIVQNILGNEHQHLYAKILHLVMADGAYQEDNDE

Experiment [3] deals with T2, panel of more than 300 wild-type and mutant kinases (313 kinase panel) (Homo sapiens, UniProt P51813).
T2 sequence (P51813 1-675): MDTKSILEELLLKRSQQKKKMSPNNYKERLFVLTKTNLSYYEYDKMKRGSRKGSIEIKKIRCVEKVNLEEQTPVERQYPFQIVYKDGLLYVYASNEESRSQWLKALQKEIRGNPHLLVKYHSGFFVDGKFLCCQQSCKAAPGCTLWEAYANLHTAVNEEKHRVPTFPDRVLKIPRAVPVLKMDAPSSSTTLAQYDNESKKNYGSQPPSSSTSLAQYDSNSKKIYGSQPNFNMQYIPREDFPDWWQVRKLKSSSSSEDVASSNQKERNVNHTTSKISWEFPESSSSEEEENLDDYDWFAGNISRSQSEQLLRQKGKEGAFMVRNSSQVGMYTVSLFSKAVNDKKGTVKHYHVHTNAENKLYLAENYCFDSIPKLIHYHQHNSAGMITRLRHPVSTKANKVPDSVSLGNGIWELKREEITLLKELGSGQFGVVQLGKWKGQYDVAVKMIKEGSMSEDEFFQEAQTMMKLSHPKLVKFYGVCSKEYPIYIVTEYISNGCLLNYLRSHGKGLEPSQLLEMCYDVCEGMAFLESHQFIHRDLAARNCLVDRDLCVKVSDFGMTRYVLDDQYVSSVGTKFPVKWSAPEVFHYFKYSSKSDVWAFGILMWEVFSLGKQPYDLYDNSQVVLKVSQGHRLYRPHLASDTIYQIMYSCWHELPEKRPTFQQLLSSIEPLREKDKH
The conditions noted are these: kinase BMX; 1 μM compound.

The target of experiment [4] is T3, panel of more than 300 wild-type and mutant kinases (313 kinase panel) (Homo sapiens, UniProt Q15831).
T3 sequence (Q15831 1-433): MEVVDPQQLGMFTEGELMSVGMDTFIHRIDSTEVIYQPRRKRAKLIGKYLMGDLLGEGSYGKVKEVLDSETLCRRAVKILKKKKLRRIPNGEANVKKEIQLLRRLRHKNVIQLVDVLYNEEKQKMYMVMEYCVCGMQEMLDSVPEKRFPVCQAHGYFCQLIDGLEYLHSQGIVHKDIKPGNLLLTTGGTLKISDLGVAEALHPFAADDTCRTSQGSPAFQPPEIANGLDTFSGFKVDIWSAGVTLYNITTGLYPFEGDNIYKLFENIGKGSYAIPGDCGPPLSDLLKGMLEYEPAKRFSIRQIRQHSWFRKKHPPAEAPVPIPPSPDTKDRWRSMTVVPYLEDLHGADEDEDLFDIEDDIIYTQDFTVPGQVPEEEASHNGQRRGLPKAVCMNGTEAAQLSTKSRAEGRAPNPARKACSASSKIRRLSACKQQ
The settings on record: kinase LKB1; compound at 1 μM.

Experiment [5] deals with panel of more than 300 wild-type and mutant kinases (313 kinase panel) (Homo sapiens, UniProt P54756). The settings on record: kinase EPHA5; compound at 1 μM.

Chain of panel of more than 300 wild-type and mutant kinases (313 kinase panel) (Homo sapiens, UniProt P10721, T670I) (P10721 26-976 T670I): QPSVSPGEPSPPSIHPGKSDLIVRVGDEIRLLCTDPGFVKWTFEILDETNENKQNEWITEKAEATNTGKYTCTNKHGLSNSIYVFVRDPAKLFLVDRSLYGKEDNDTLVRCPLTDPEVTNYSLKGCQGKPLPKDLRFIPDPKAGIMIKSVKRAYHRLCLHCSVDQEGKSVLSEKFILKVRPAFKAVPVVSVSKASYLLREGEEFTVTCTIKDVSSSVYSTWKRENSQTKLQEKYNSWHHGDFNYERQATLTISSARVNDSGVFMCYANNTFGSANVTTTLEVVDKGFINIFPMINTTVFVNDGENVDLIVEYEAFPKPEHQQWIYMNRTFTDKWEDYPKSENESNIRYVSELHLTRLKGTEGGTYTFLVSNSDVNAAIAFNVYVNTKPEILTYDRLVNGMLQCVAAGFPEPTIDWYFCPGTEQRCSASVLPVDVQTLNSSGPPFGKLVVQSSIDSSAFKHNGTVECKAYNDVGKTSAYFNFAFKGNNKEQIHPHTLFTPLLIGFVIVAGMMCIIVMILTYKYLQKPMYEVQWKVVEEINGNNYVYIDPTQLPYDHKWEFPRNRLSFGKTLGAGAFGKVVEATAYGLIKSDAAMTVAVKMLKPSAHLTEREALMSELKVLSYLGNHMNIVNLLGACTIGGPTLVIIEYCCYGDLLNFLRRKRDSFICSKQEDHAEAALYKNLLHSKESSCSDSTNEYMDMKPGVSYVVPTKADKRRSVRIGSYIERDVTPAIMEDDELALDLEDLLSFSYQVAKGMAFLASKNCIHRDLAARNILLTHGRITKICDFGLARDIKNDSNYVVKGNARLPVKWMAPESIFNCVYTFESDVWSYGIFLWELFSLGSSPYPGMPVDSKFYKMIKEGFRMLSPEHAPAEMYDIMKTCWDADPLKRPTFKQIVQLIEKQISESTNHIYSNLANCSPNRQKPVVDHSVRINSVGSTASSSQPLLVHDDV

As for `CO[C@H]1C[C@@H]2CC[C@@H](C)[C@@](O)(O2)C(=O)C(=O)N2CCCC[C@H]2C(=O)O[C@H]([C@H](C)C[C@@H]2CC[C@@H](OC(=O)C(C)(CO)CO)[C@H](OC)C2)CC(=O)[C@H](C)/C=C(\C)[C@@H](O)[C@@H](OC)C(=O)[C@H](C)C[C@H](C)/C=C/C=C/C=C/1C` [temsirolimus], the “%-inhibition of KIT(T670I)” value in experiment [1] (kinase KIT(T670I), compound at 1 μM) is reported as -4.27%. Moreover, in experiment [2] (kinase NEK1, 1 μM), the “%-inhibition of NEK1” value is -8%. Further, the “%-inhibition, BMX” value in experiment [3] is -7%. Moreover, the “%-inhibition of LKB1” value in experiment [4] is -6.57%. Besides, in experiment [5], the “%-inhibition of EPHA5” value is listed as -3.79%.

`CS(=O)(=O)CCNCc1ccc(-c2ccc3ncnc(Nc4ccc(OCc5cccc(F)c5)c(Cl)c4)c3c2)o1` [lapatinib]: the “%-inhibition of KIT(T670I)” value in experiment [1] (1 µM) amounted to 0%. Moreover, the “%-inhibition of NEK1” value in experiment [2] (1 µM) turned out to be 1.5%. Further, the “%-inhibition, BMX” value in experiment [3] is 9%. Further, in experiment [4], the “%-inhibition of LKB1” value is listed as 4%. Besides, the “%-inhibition of EPHA5” value in experiment [5] came to 6%.
